Source: patent US20240100013A1, “SOTAGLIFLOZIN FOR IMPROVING LEFT ATRIAL FUNCTION” (CHARITÉ-UNIVERSITÄTSMEDIZIN BERLIN, priority 2021, published 2024)

Assays:
[1] = tested on: high-fat diet/streptozotocin-induced diabetic rats; conditions: via improved mitochondrial function; cited from earlier work
LA cardiomyocytes = experiment: Spontaneous SR Ca2+ release events (SCaEs) of isolated LA cardiomyocytes; assay type: cell-based, rat; conditions: baseline conditions; antioxidative treatment; both HFpEF groups
Excerpt: Cardiomyocyte isolation. LA and LV cardiomyocytes were isolated using enzymatic digestion as previously described in detail. See Bode D, Guthof T, Pieske B M, Heinzel F R, Hohendanner F: “Isolation of Atrial Cardiomyocytes from a Rat Model of Metabolic Syndrome-related Heart Failure with Preserved Ejection Fraction,” J Vis Exp 2018(137).
Solutions and chemicals. Chemicals were obtained from Sigma-Aldrich (St. Louis, MO, USA) unless noted otherwise. The dual SGLT1/2 inhibitor sotagliflozin was provided by Lexicon Pharmaceuticals (The Woodlands, TX, USA). Fluorescent dyes Fura-2 AM, Rhod-2 AM, MitoTracker red, MitoTracker green, TMRE and H2-DCF were obtained from Thermo Fisher Scientific (Waltham, MA, USA). Tyrode solution contained (in mM): 130 NaCL, 4 KCl, 2 CaCl, 1 MgCl2, 10 Glucose, 10 HEPES; pH adjusted to 7.4 with NaOH. LA cardiomyocytes were plated on laminin-coated glass coverslips. 20 mM caffeine was added to Tyrode solution to induce sarcoplasmic reticulum (SR) Ca^2+ release and obtain a measure of SR Ca^2+ content. […]
Ca^2+ measurements and sarcomere shortening. Radiometric Ca^2+ measurements (excitation: 340 nm and 385 nm, emission: 510±10 nm; [Ca^2+] expressed as the ratio R=F340/F380) were performed either with a CytoCypher MultiCell System (CytoCypher BV, Netherlands; FIGS. 1C-F, 2D-G, 4A-F) or an Axiovert 200 microscope (Zeiss, Oberkochen, Germany) fluorescence imaging assembly (FIGS. 2A-C, 2H-J, 3A-E, 6E-I). […] Experiments were conducted at 37° C. and CaT were recorded at steady state (following electric stimulation).
CaT and sarcomere shortening of LA and LV cardiomyocytes were recorded for 10 s at 3 Hz stimulation. See FIGS. 2D-G, 4A-F. Electric stimulation was turned off and spontaneous SR Ca^2+ release events (See Voigt N, Heijman J, Wang Q, Chiang D Y, Li N, Karck M, Wehrens X H T, Nattel S, Dobrev D: “Cellular and molecular mechanisms of atrial arrhythmogenesis in patients with paroxysmal atrial fibrillation,” Circulation 2014, 129(2):145-156) (SCaEs) immediately recorded for a duration of 10 s (FIG. 1C-F). […]

SMILES: OC[C@H]1O[C@@H](c2ccc(Cl)c(Cc3ccc(O[C@H]4CCOC4)cc3)c2)[C@H](O)[C@@H](O)[C@@H]1O [empagliflozin]
- diabetes related atrial fibrillation [1]: mitigate

SMILES: CC(=O)N[C@@H](CS)C(=O)O [acetylcysteine]
- occurrence of SCaEs (LA cardiomyocytes): decreased
